Laboratory results published in patent publication US7202239B2, “Cyclohexylphenyl carboxamides tocolytic oxytocin receptor antagonists” (Wyeth, priority 2001, dated 2007).

Target: T1, human oxytocin receptor (Homo sapiens, UniProt P30559)
T1 sequence (P30559 1-389): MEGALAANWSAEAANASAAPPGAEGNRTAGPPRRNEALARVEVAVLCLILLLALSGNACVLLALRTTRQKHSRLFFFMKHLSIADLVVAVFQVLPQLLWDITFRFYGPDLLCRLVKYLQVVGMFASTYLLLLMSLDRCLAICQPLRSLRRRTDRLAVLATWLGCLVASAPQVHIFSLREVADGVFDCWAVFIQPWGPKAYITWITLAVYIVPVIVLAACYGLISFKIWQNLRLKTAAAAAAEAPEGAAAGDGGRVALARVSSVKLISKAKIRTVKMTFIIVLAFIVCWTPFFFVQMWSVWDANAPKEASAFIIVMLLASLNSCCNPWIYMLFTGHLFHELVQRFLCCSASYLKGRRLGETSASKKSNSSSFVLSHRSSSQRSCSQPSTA
Experiment: Oxytocin binding in CHO cell membranes expressing human oxytocin receptors
Settings: 100 nM, [3H]oxytocin
Text: Oxytocin Binding in Chinese Hamster Ovary Cell Membranes Expressing Human Oxytocin Receptors
Chinese Hamster Ovary (CHO) cells stably transfected with the human oxytocin receptor (cf. Tanizawa et al., U.S. Pat. No. 5,466,584 (1995) to Rohto Pharmaceutical Co. Ltd., Osaka, Japan) were obtained from M. Thibonnier, Case Western Reserve University School of Medicine, Cleveland, Ohio. A. Passaging and Amplification of Cells: CHO cells transfected with the human oxytocin receptors obtained from M. Thibonnier (pcDNA3.1 vector) are allowed to grow to confluency (approx. >90%) in T-150 flasks under sterile conditions, in a cell culture medium of F-12 Nutrient Mixture (HAM) with L-glutamine (Gibco Cat. # 11765-054) containing 15 mM HEPES (Gibco Cat. # 15630-080), 1% antibiotic/antimycotic (add 5 mL 100×, Gibco Cat. # 15240-062 per 500 mL F-12), 400 μg/mL of Geneticin (add 4 mL of 50 mg/mL per 500 mL F-12) and 10% Fetal Bovine Serum (Qualified, heat inactivated, Gibco Cat. # 16140-063). The medium is removed by aspiration and the cells are washed with 10 mL of Hank's Balanced Salt solution (Gibco Cat. # 14175-095). The salt solution is removed by aspiration and the cells trypsinized with 5 mL of trypsin-EDTA (0.05% trypsin, 0.53 mM EDTA-4Na, Gibco Cat. # 25300-070) for 1 min The trypsin is removed by aspiration and the cells dislodged by tapping. Cell Culture medium (e.g. 30 mL for 1:30 split) is immediately added and mixed well to inactivate trypsin. 1 mL of detached cells is added to new culture flasks containing fresh Cell Culture medium (e.g. into 25 mL per T-150 flask), and mixed gently. The cells are incubated at 37° C. in 5% CO2. The medium is changed at 3 to 4 days interval (or as appropriate). The cells grow to confluency (approx. >75%–95%) within 7–8 days. All steps are done under sterile conditions. B. Membrane Preparation: The cells are washed twice gently with Hank's Balanced Salt solution (eg, use 10 mL per T-150 flask). The excess solution is removed and the cells bathed for 15–30 min. in an enzyme-free Cell Dissociation Buffer (eg, use 8 mL Hank's Based, Gibco Cat. # 13150-016 per T-150 flask) until cells are loosened. The contents are transferred to centrifuge tubes (50 mL size) kept in ice bath. All subsequent steps are done at 4° C. The tubes are centrifuged at 300×g for 15 min (1380 rpm on SORVAL, Model RT6000D, using rotor for 50 mL tubes). The supernatant is discarded and the cells suspended in homogenizing buffer (10 mM Tris-HCl containing 0.25 M sucrose and 1 mM EDTA, pH 7.4) ensuring that the volume of the buffer is about ten times the volume of the cell pellet. The cells are pooled into a centrifuge tube (50 mL) and homogenized with a Polytron at setting 6 for 10 sec. The homogenate is transferred into a Potter-Elvjehm homogenizer and homogenized with 3 strokes. The homogenate is centrifuged at 1500×g for 10 min at 4° C. (3100 rpm using SORVAL, model RT6000D, using rotor for 50 mL tubes). The pellet is discarded. The supernatant is centrifuged at 100,000×g for 60 min. at 4° C. (Beckman L8-80M ultracentrifuge; spin at 37,500 rpm with rotor type 70 Ti for 50 mL tubes; 38,000 rpm with type 80Ti for 15 mL tubes; or 35,800 rpm with rotor type 45Ti). The supernantant is discarded and the pellet suspended in 3 to 4 mL of Tris buffer (50 mM TRIS-HCl, pH 7.4). The protein content is estimated by the Bradford or Lowry method. The volume of the membrane suspension is adjusted with the membrane buffer (50 mM Tris-HCl containing 0.1% BSA and 0.1 mM PMSF) to give 3.0 mg/mL (or as appropriate) of protein. The membranes are aliquoted and stored at −70° C. C. Radioligand Binding Assay: In wells of a 96-well format microtiter plate, is added 90, 110 or 130 μL (to make up a final volume of 200 μL) of assay buffer containing 50 mM of Tris-HCl (pH 7.4), […], 1 mg % aprotinin, 1 mg % leupeptin, 2 mg % 1,10-phenanthroline, 10 mg % trypsin inhibitor, and 0.1 mM PMSF. […]

Question: Which “OT % inhibition at 100 nM” value does the source give for `O=C(C(=O)N1CCC(N2CCCCC2)CC1)c1ccc2n1Cc1ccccc1N(C(=O)c1ccc(C3CCCCC3)cc1)C2` [Example 31, 1-[1.4′]Bipiperidinyl-1′-yl-2-[10-(4-cyclohexyl-benzoyl)-10,11-dihydro-5H-pyrrolo[2,1-c][1,4]benzodiazepin-3-yl]-ethane-1,2-dione] here?
Answer: Its value is 89%.

Question: `Cc1cccc(C(=O)NNC(=O)c2ccc3n2Cc2ccccc2N(C(=O)c2ccc(C4CCCCC4)cc2)C3)c1` [Example 14, 10-(4-Cyclohexyl-benzoyl)-N′-(3-methyl-benzoyl)-10,11-dihydro-5H-pyrrolo[2,1-c][1,4]benzodiazepine-3-carbonyl-hydrazide] was tested. Which “OT % inhibition at 100 nM” value did it give?
Answer: The value was 53%.

Same assay, conditions: 100 nM, [3H]oxytocin, read-out: OT % inhibition at 100 nM

Question: Which inhibition at 0.1 µM does the source give for `CC(C)(C)c1ccc(C(=O)c2ccc3n2Cc2ccccc2N(C(=O)c2ccc(C4CCCCC4)cc2)C3)cc1` [Example 5, [4-(tert-Butyl)phenyl][10-(4-cyclohexyl-benzoyl)-10,11-dihydro-5H-pyrrolo[2,1-c][1,4]benzodiazepin-3-yl]methanone] here?
Answer: The inhibition at 0.1 µM was 46%.

Question: With `CN(C)CCCN1CCN(C(=O)c2ccc3n2Cc2ccccc2N(C(=O)c2ccc(C4CCCCC4)cc2)C3)CC1` [Example 45, [10-(4-Cyclohexyl-benzoyl)-10,11-dihydro-5H-pyrrolo[2,1-c][1,4]benzodiazepin-3-yl]{4-[3-(dimethylamino)propyl]-1-piperazinyl}methanone] as the molecule, how does the inhibition at 0.1 µM read?
Answer: Its inhibition at 0.1 µM is 71%.

Question: How did the inhibition at 0.1 µM turn out when `O=C(NNC(=O)c1ccc2n1Cc1ccccc1N(C(=O)c1ccc(C3CCCCC3)cc1)C2)Nc1ccccc1` [Example 15, 2-{[10-(4-Cyclohexyl-benzoyl)-10,11-dihydro-5H-pyrrolo[2,1-c][1,4]benzodiazepin-3-yl]carbonyl}-N-phenyl-1-hydrazinecarboxamide] was run?
Answer: The inhibition at 0.1 µM was 16%.

Question: Which inhibition at 0.1 µM does the source give for `CN(C)CCN1CCN(C(=O)c2ccc3n2Cc2ccccc2N(C(=O)c2ccc(C4CCCCC4)cc2)C3)CC1` [Example 41, [10-(4-Cyclohexyl-benzoyl)-10,11-dihydro-5H-pyrrolo[2,1-c][1,4]benzodiazepin-3-yl]{4-[2-(dimethylamino)ethyl]-1-piperazinyl}methanone] here?
Answer: Its inhibition at 0.1 µM is 31%.

Question: Which inhibition at 0.1 µM does the source give for `O=C(NCCc1ccccn1)c1ccc2n1Cc1ccccc1N(C(=O)c1ccc(C3CCCCC3)cc1)C2` [Example 49, 10-(4-Cyclohexyl-benzoyl)-N-[2-(2-pyridinyl)ethyl]-10,11-dihydro-5H-pyrrolo[2,1-c][1,4]benzodiazepine-3-carboxamide] here?
Answer: Its inhibition at 0.1 µM is -2%.

Question: How did the inhibition at 0.1 µM turn out when `CN(C)CCCN(C)C(=O)c1ccc2n1Cc1ccccc1N(C(=O)c1ccc(C3CCCCC3)cc1)C2` [Example 35, 10-(4-Cyclohexyl-benzoyl)-N-[3-(dimethylamino)propyl]N-methyl-10,11-dihydro-5H-pyrrolo[2,1-c][1,4]benzodiazepine-3-carboxamide] was run?
Answer: Its inhibition at 0.1 µM is 55%.

Question: For `O=C(NCc1cccnc1)c1ccc2n1Cc1ccccc1N(C(=O)c1ccc(C3CCCCC3)cc1)C2` [Example 51, 10-(4-Cyclohexyl-benzoyl)-N-(3-pyridinylmethyl)-10,11-dihydro-5H-pyrrolo [2,1-c][1,4]benzodiazepine-3-carboxamide], which inhibition at 0.1 µM is on record?
Answer: Its inhibition at 0.1 µM is -8%.

Question: With `CN(CCc1ccccn1)C(=O)c1ccc2n1Cc1ccccc1N(C(=O)c1ccc(C3CCCCC3)cc1)C2` [Example 52, 10-(4-Cyclohexyl-benzoyl)-N-methyl-N-[2-(2-pyridinyl)-ethyl]-10,11-dihydro-5H-pyrrolo[2,1-c][1,4]benzodiazepine-3-carboxamide] as the molecule, how does the inhibition at 0.1 µM read?
Answer: Its inhibition at 0.1 µM is 45%.

Question: Which inhibition at 0.1 µM does the source give for `CN1CCC(N(C)C(=O)c2ccc3n2Cc2ccccc2N(C(=O)c2ccc(C4CCCCC4)cc2)C3)CC1` [Example 39, 10-(4-Cyclohexyl-benzoyl)-N-methyl-N-(1-methyl-4-piperidinyl)-10,11-dihydro-5H-pyrrolo[2,1-c][1,4]benzodiazepine-3-carboxamide] here?
Answer: Its inhibition at 0.1 µM is 85%.

Question: With `CN1CCC(N(C)C(=O)c2ccc3n2Cc2ccccc2N(C(=O)c2ccc(C4CCCCC4)cc2)C3)C1` (centres unmarked) [Example 40, 10-(4-Cyclohexyl-benzoyl)-N-methyl-N-(1-methyl-3-pyrrolidinyl)-10,11-dihydro-5H-pyrrolo[2,1-c][1,4]benzodiazepine-3-carboxamide] as the molecule, how does the inhibition at 0.1 µM read?
Answer: The inhibition at 0.1 µM was 60%.

Question: For `CN(CCc1ccncc1)C(=O)c1ccc2n1Cc1ccccc1N(C(=O)c1ccc(C3CCCCC3)cc1)C2` [Example 55, 10-(4-Cyclohexyl-benzoyl)-N-methyl-N-[2(4-pyridinyl)ethyl]-10,11-dihydro-5H-pyrrolo[2,1-c][1,4]benzodiazepine-3-carboxamide], which inhibition at 0.1 µM is on record?
Answer: The inhibition at 0.1 µM was 91%.

Question: For `Cc1ccccc1N1CCN(C(=O)c2ccc3n2Cc2ccccc2N(C(=O)c2ccc(C4CCCCC4)cc2)C3)CC1` [Example 27, [10-(4-Cyclohexyl-benzoyl)-10,11-dihydro-5H-pyrrolo[2,1-c][1,4]benzodiazepin-3-yl][4-(2-methylphenyl)-1-piperazinyl]-methanone], which inhibition at 0.1 µM is on record?
Answer: The inhibition at 0.1 µM was 44%.

Same assay, conditions: [3H]oxytocin, value in parentheses, read-out: OT (IC50)

Question: `CN1CCN(C(=O)c2ccc3n2Cc2ccccc2N(C(=O)c2ccc(C4CCCCC4)cc2)C3)CC1` [Example 24, [10-(4-Cyclohexyl-benzoyl)-10,11-dihydro-5H-pyrrolo[2,1-c][1,4]benzodiazepin-3-yl](4-methyl-1-piperazinyl)-methanone] was tested. Which IC50 did it give?
Answer: Its IC50 is 18.3 nM.

Question: For `O=C(c1ccc2n1Cc1ccccc1N(C(=O)c1ccc(C3CCCCC3)cc1)C2)N1CCC(N2CCCCC2)CC1` [Example 26, [1,4′]Bipiperidinyl-1′-yl-[10-(4-cyclohexyl-benzoyl)-10,11-dihydro-5H-pyrrolo[2,1-c][1,4]benzodiazepin-3-yl]-methanone], which IC50 is on record?
Answer: Its IC50 is 19.7 nM.

Question: Which IC50 does the source give for `CN(C)/C=N/C(=O)c1ccc2n1Cc1ccccc1N(C(=O)c1ccc(C3CCCCC3)cc1)C2` [Example 17] here?
Answer: Its IC50 is 51.4 nM.

Question: `CN(C)NC(=O)c1ccc2n1Cc1ccccc1N(C(=O)c1ccc(C3CCCCC3)cc1)C2` [Example 19, 10-(4-Cyclohexyl-benzoyl)-N′-N′-dimethyl-10,11-dihydro-5H-pyrrolo[2,1-c][1,4]benzodiazepine-3-carbohydrazide] was tested. Which IC50 did it give?
Answer: Its IC50 is 130 nM.

Question: For `NC(=O)c1ccc2n1Cc1ccccc1N(C(=O)c1ccc(C3CCCCC3)cc1)C2` [Example 16, 10-(4-Cyclohexyl-benzoyl)-10,11-dihydro-5H-pyrrolo[2,1-c][1,4]benzodiazepin-3-carboxamide], which IC50 is on record?
Answer: Its IC50 is 133 nM.

Question: `NNC(=O)c1ccc2n1Cc1ccccc1N(C(=O)c1ccc(C3CCCCC3)cc1)C2` [Example 8, 10-(4-Cyclohexy-benzoyl)-10,11-dihydro-5H-pyrrolo[2,1-c][1,4]benzodiazepine-3-carboxylic acid hydrazide] was tested. Which IC50 did it give?
Answer: Its IC50 is 127 nM.
